27 compounds from patent US20240261249A1, “NOVEL SQUARAMIDE DERIVATIVE AND USE THEREOF” (PUSAN NATIONAL UNIVERSITY INDUSTRY-UNIVERSITY COOPERATION …, priority 2021, published 2024) can be followed below.

The subject of this test is Phospho-eIF2α (Ser51). As to the kind of experiment: Phospho-eIF2α (Ser51) Sandwich ELISA in K562 cells. The format is cell-based. As to conditions: serum-free RPMI, 10 μM compound; for activity at 10 µM: Homo sapiens, K562, 6 h, control = 1, read-out: eIF2α phosphorylation, absorbance standardized to control (DMSO-treated) set to 1, at 10 μM. The protocol:
Pathscan Phospho-eIF2α (Ser51) Sandwich ELISA Kit #7286 from Cell signaling was used. The K562 cell line was cultured in serum-free RPMI medium at 37° C. in the presence of 5% CO2. Cells were treated with test compounds at a concentration of 10 μM. Six hours after compound treatment, the cells were lysed with a lysis buffer included in the kit to obtain 50 μg of protein by quantification. Afterwards, ELISA assay was performed according to the manufacturer's protocol to obtain absorbance. The absorbance for each obtained compound was standardized to a value of which the control (DMSO-treated) is set to 1.
For orientation: ELISA stands for enzyme-linked immunosorbent assay.

For `CC(C)(C)c1ccc(Nc2c(N[C@H]3CC[C@H](Oc4ccc(C#N)cc4)CC3)c(=O)c2=O)cc1` [Compound 51, 4-(((1,4-trans)-4-((2-((4-(tert-Butyl)phenyl)amino)-3,4-dioxocyclobut-1-en-1-yl)amino)cyclohexyl)oxy)benzonitrile], the activity at 10 µM is 182%. The same measure, in the same setting: the value for `CC(C)(C)c1ccc(Nc2c(N[C@H]3CC[C@H](Oc4ccc([N+](=O)[O-])cc4)CC3)c(=O)c2=O)cc1` [Compound 52, 3-((4-(tert-Butyl)phenyl)amino)-4-(((1,4-trans)-4-(4-nitrophenoxy)cyclohexyl)amino)cyclobut-3-ene-1,2-dione] was 77%.

Regarding `CC(C)(C)c1ccc(Nc2c(N[C@H]3CC[C@H](Oc4ccc(S(C)(=O)=O)cc4)CC3)c(=O)c2=O)cc1` [Compound 53, 3-((4-(tert-Butyl)phenyl)amino)-4-(((1,4-trans)-4-(4-(methylsulfonyl)phenoxy)cyclohexyl)amino)cyclobut-3-ene-1,2-dione], the activity at 10 µM was determined as 133%. Still for that read-out and setting: the result for `COc1ccc(Nc2c(N[C@H]3CC[C@H](Oc4ccc(C(F)(F)F)cc4)CC3)c(=O)c2=O)cc1` [Compound 54, 3-((4-Methoxyphenyl)amino)-4-(((1,4-trans)-4-(4-(trifluoromethyl)phenoxy)cyclohexyl)amino)cyclobut-3-ene-1,2-dione] reads 182%; that for `COc1ccc(Nc2c(N[C@H]3CC[C@H](Oc4ccc(C#N)cc4)CC3)c(=O)c2=O)cc1` [Compound 55, 4-(((1,4-trans)-4-((2-((4-Methoxyphenyl)amino)-3,4-dioxocyclobut-1-en-1-yl)amino)cyclohexyl)oxy)benzonitrile], 84%.

Regarding `COc1ccc(Nc2c(N[C@H]3CC[C@H](Oc4ccc([N+](=O)[O-])cc4)CC3)c(=O)c2=O)cc1` [Compound 56, 3-((4-Methoxyphenyl)amino)-4-(((1,4-trans)-4-(4-nitrophenoxy)cyclohexyl)amino)cyclobut-3-ene-1,2-dione], the activity at 10 µM was 227%. As to `COc1ccc(Nc2c(N[C@H]3CC[C@H](Oc4ccc(S(C)(=O)=O)cc4)CC3)c(=O)c2=O)cc1` [Compound 57, 3-((4-Methoxyphenyl)amino)-4-(((1,4-trans)-4-(4-(methylsulfonyl)phenoxy)cyclohexyl)amino)cyclobut-3-ene-1,2-dione], the activity at 10 µM was found to be 211%. Same read-out and setting: the value for `COC(=O)c1ccc(Nc2c(N[C@H]3CC[C@H](Oc4ccc(C(F)(F)F)cc4)CC3)c(=O)c2=O)cc1` [Compound 58, Methyl 4-((3,4-dioxo-2-(((1,4-trans)-4-(4-(trifluoromethyl)phenoxy)cyclohexyl)amino)cyclobut-1-en-1-yl)amino)benzoate] was 97%. As for `COC(=O)c1ccc(Nc2c(N[C@H]3CC[C@H](Oc4ccc(C#N)cc4)CC3)c(=O)c2=O)cc1` [Compound 59, Methyl 4-((2-(((1,4-trans)-4-(4-cyanophenoxy)cyclohexyl)amino)-3,4-dioxocyclobut-1-en-1-yl)amino)benzoate], the activity at 10 µM worked out at 83%. The same measure, in the same setting: the result for `COC(=O)c1ccc(Nc2c(N[C@H]3CC[C@H](Oc4ccc([N+](=O)[O-])cc4)CC3)c(=O)c2=O)cc1` [Compound 60, Methyl 4-((2-(((1,4-trans)-4-(4-nitrophenoxy)cyclohexyl)amino)-3,4-dioxocyclobut-1-en-1-yl)amino)benzoate] reads 97%; that for `COC(=O)c1ccc(Nc2c(N[C@H]3CC[C@H](Oc4ccc(S(C)(=O)=O)cc4)CC3)c(=O)c2=O)cc1` [Compound 61, Methyl 4-((2-(((1,4-trans)-4-(4-(methylsulfonyl)phenoxy)cyclohexyl)amino)-3,4-dioxocyclobut-1-en-1-yl)amino)benzoate], 148%; that for `O=c1c(Nc2ccccc2F)c(N[C@H]2CC[C@H](Oc3ccc(C(F)(F)F)cc3)CC2)c1=O` [Compound 62, 3-((2-Fluorophenyl)amino)-4-(((1,4-trans)-4-(4-(trifluoromethyl)phenoxy)cyclohexyl)amino)cyclobut-3-ene-1,2-dione], 182%. The same measure, in the same setting: the result for `N#Cc1ccc(O[C@H]2CC[C@H](Nc3c(Nc4ccccc4F)c(=O)c3=O)CC2)cc1` [Compound 63, 4-(((1,4-trans)-4-((2-((2-Fluorophenyl)amino)-3,4-dioxocyclobut-1-en-1-yl)amino)cyclohexyl)oxy)benzonitrile] reads 75%; that for `O=c1c(Nc2ccccc2F)c(N[C@H]2CC[C@H](Oc3ccc([N+](=O)[O-])cc3)CC2)c1=O` [Compound 64, 3-((2-Fluorophenyl)amino)-4-(((1,4-trans)-4-(4-nitrophenoxy)cyclohexyl)amino)cyclobut-3-ene-1,2-dione], 133%. Consider `CS(=O)(=O)c1ccc(O[C@H]2CC[C@H](Nc3c(Nc4ccccc4F)c(=O)c3=O)CC2)cc1` [Compound 65, 3-((2-Fluorophenyl)amino)-4-(((1,4-trans)-4-(4-(methylsulfonyl)phenoxy)cyclohexyl)amino)cyclobut-3-ene-1,2-dione], for which the “eIF2α phosphorylation, absorbance standardized to control (DMSO-treated) set to 1, at 10 μM” value (6 hours, control = 1) came to 1.07.

As to `O=c1c(Nc2ccccc2Cl)c(N[C@H]2CC[C@H](Oc3ccc(C(F)(F)F)cc3)CC2)c1=O` [Compound 66, 3-((2-Chlorophenyl)amino)-4-(((1,4-trans)-4-(4-(trifluoromethyl)phenoxy)cyclohexyl)amino)cyclobut-3-ene-1,2-dione], the activity at 10 µM is 159%. The same measure, in the same setting: the result for `N#Cc1ccc(O[C@H]2CC[C@H](Nc3c(Nc4ccccc4Cl)c(=O)c3=O)CC2)cc1` [Compound 67, 4-(((1,4-trans)-4-((2-((2-Chlorophenyl)amino)-3,4-dioxocyclobut-1-en-1-yl)amino)cyclohexyl)oxy)benzonitrile] reads 199%; that for `O=c1c(Nc2ccccc2Cl)c(N[C@H]2CC[C@H](Oc3ccc([N+](=O)[O-])cc3)CC2)c1=O` [Compound 68, 3-((2-Chlorophenyl)amino)-4-(((1,4-trans)-4-(4-nitrophenoxy)cyclohexyl)amino)cyclobut-3-ene-1,2-dione], 209%; that for `CS(=O)(=O)c1ccc(O[C@H]2CC[C@H](Nc3c(Nc4ccccc4Cl)c(=O)c3=O)CC2)cc1` [Compound 69, 3-((2-Chlorophenyl)amino)-4-(((1,4-trans)-4-(4-(methylsulfonyl)phenoxy)cyclohexyl)amino)cyclobut-3-ene-1,2-dione], 101%. Still for that read-out and setting: the value for `CS(=O)(=O)c1ccc(O[C@H]2CC[C@H](Nc3c(Nc4ccccc4C(F)(F)F)c(=O)c3=O)CC2)cc1` [Compound 73, 3-(((1,4-trans)-4-(4-(Methylsulfonyl)phenoxy)cyclohexyl)amino)-4-((2-(trifluoromethyl)phenyl)amino)cyclobut-3-ene-1,2-dione] was 84%. With `CC(C)(C)c1ccccc1Nc1c(N[C@H]2CC[C@H](Oc3ccc(C#N)cc3)CC2)c(=O)c1=O` [Compound 75, 4-(((1,4-trans)-4-((2-((2-(tert-Butyl)phenyl)amino)-3,4-dioxocyclobut-1-en-1-yl)amino)cyclohexyl)oxy)benzonitrile], the activity at 10 µM turned out to be 162%. Same read-out and setting: the value for `CC(C)(C)c1ccccc1Nc1c(N[C@H]2CC[C@H](Oc3ccc([N+](=O)[O-])cc3)CC2)c(=O)c1=O` [Compound 76, 3-((2-(tert-Butyl)phenyl)amino)-4-(((1,4-trans)-4-(4-nitrophenoxy)cyclohexyl)amino)cyclobut-3-ene-1,2-dione] was 139%; that for `COc1ccccc1Nc1c(N[C@H]2CC[C@H](Oc3ccc(C(F)(F)F)cc3)CC2)c(=O)c1=O` [Compound 78, 3-((2-Methoxyphenyl)amino)-4-(((1,4-trans)-4-(4-(trifluoromethyl)phenoxy)cyclohexyl)amino)cyclobut-3-ene-1,2-dione] was 213%. Same read-out and setting: the result for `COc1ccccc1Nc1c(N[C@H]2CC[C@H](Oc3ccc(C#N)cc3)CC2)c(=O)c1=O` [Compound 79, 4-(((1,4-trans)-4-((2-((2-Methoxyphenyl)amino)-3,4-dioxocyclobut-1-en-1-yl)amino)cyclohexyl)oxy)benzonitrile] reads 238%.

In the case of `COc1ccccc1Nc1c(N[C@H]2CC[C@H](Oc3ccc([N+](=O)[O-])cc3)CC2)c(=O)c1=O` [Compound 80, 3-((2-Methoxyphenyl)amino)-4-(((1,4-trans)-4-(4-nitrophenoxy)cyclohexyl)amino)cyclobut-3-ene-1,2-dione], the activity at 10 µM amounted to 133%. Still for that read-out and setting: the result for `COc1ccccc1Nc1c(N[C@H]2CC[C@H](Oc3ccc(S(C)(=O)=O)cc3)CC2)c(=O)c1=O` [Compound 81, 3-((2-Methoxyphenyl)amino)-4-(((1,4-trans)-4-(4-(methylsulfonyl)phenoxy)cyclohexyl)amino)cyclobut-3-ene-1,2-dione] reads 152%; that for `COc1ccccc1Nc1c(N[C@H]2CC[C@H](Oc3ccc(S(N)(=O)=O)cc3)CC2)c(=O)c1=O` [Compound 82, 4-(((1,4-trans)-4-((2-((2-Methoxyphenyl)amino)-3,4-dioxocyclobut-1-en-1-yl)amino)cyclohexyl)oxy)benzenesulfonamide], 136%.
